Experimental data as given in ChEMBL document CHEMBL5046289, “Targeting the S2 Subsite Enables the Structure-Based Discovery of Novel Highly Selective Factor XIa Inhibitors” (J Med Chem, 2022).
Activity calls are given as the source filed them. The rule behind the calls is not given here.

What was measured:
[1] = Acute toxicity in ICR female mouse assessed as effect on weight loss at 50 to 100 mg/kg, iv as single dose for 14 days; type: organism-based; conditions: in vivo, 336 h, dose 50-100 mg/kg, time 14 day
[2] = target: Coagulation factor IX (Homo sapiens) (UniProt P00740); assay: Inhibition of coagulation factor IXa (unknown origin) assessed as chromogenic substrate using ADG299 as substrate at 1 mM incubated for 1 hr by spectrophotometer based microplate reader method
Sequence of Coagulation factor IX (Homo sapiens) (P00740 47-191 limits assumed): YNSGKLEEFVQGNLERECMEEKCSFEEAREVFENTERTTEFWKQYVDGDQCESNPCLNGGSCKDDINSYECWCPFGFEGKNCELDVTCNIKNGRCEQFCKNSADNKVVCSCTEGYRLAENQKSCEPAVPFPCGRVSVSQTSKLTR
Sequence of Coagulation factor IX (Homo sapiens) (P00740 227-461 limits assumed): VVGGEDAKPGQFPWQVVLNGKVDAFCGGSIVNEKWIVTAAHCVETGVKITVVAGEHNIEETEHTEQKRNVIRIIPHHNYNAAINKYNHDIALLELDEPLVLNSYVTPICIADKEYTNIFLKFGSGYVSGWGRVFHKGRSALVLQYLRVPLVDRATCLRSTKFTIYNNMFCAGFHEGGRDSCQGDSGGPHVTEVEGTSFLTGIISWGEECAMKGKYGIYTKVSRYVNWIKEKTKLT

[3] = Toxicity in C57BL/6J mouse assessed as bleeding risk at 20 mg/kg, iv measured after 15 mins by tail transection assay; type: organism-based; conditions: in vivo, 0.25 h
Plasma [4] = assay: Anticoagulant activity in mouse platelet-poor plasma assessed as increase in prothrombin time at 3.8 to 210 ug/ml incubated for 3 mins by coagulometer analysis; type: functional, cell-free; conditions: dose 3.8-210 µg/ml
[5] = Acute toxicity in ICR mouse assessed as histological change in heart at 50 to 100 mg/kg, iv as single dose for 14 days by H and E staining method; type: organism-based; conditions: in vivo, 336 h, dose 50-100 mg/kg, time 14 day
Homo sapiens [6] = species on record: Homo sapiens; assay: Selectivity index, ratio of IC50 for coagulation factor IXa (unknown origin) to IC50 for coagulation factor XIa (unknown origin)
[7] = Clearance in Sprague-Dawley rat at 10 mg/kg, iv after 0.083 to 24 hrs by LC-MS/MS analysis; type: ADME, organism-based; conditions: in vivo, time 0.083-24 hrs
Prothrombin = Prothrombin (Homo sapiens, UniProt P00734); assay: Inhibition of thrombin (unknown origin) assessed as chromogenic substrate using CS-10(38) as substrate incubated for 1 hr by spectrophotometer based microplate reader method
Homo sapiens [8] = species on record: Homo sapiens; assay: Selectivity index, ratio of IC50 for coagulation factor XIIa (unknown origin) to IC50 for coagulation factor XIa (unknown origin)
[9] = AUC(0 to t) in Sprague-Dawley rat at 10 mg/kg, iv after 0.083 to 24 hrs by LC-MS/MS analysis; type: ADME, organism-based; parameters: route intravenous, time upper 24 hrs, time lower 0.083 hrs, dose 10 mg/kg; conditions: in vivo
[10] = Acute toxicity in ICR mouse assessed as histological change in liver at 50 to 100 mg/kg, iv as single dose for 14 days by H and E staining method; type: organism-based; conditions: in vivo, 336 h, dose 50-100 mg/kg, time 14 day
Homo sapiens [11] = species on record: Homo sapiens; assay: Selectivity index, ratio of IC50 for trypsin (unknown origin) to IC50 for coagulation factor XIa (unknown origin)
[12] = Apparent volume of distribution in Sprague-Dawley rat at 10 mg/kg, iv after 0.083 to 24 hrs by LC-MS/MS analysis; type: ADME, organism-based; conditions: in vivo, time 0.083-24 hrs, read-out: Vz
[13] = Cmax in Sprague-Dawley rat at 10 mg/kg, iv after 0.083 to 24 hrs by LC-MS/MS analysis; type: ADME, organism-based; parameters: route intravenous, dose 10 mg/kg, time upper 24 hrs, time lower 0.083 hrs; conditions: in vivo
Mus musculus = assay: Antithrombotic activity against FeCl3-induced carotid artery thrombosis C57BL/6J mouse model assessed as prolongation of occlusion time pretreated at 19.5 mg/kg, iv tail vein injection for 10 mins followed by FeCl3 addition for 3 mins and measured after 30 mins; type: functional, organism-based; conditions: time 43.0 min
[14] = Acute toxicity in ICR mouse assessed as histological change in lung at 50 to 100 mg/kg, iv as single dose for 14 days by H and E staining method; type: organism-based; conditions: in vivo, 336 h, dose 50-100 mg/kg, time 14 day
[15] = MRT(0 to t) in Sprague-Dawley rat at 10 mg/kg, iv after 0.083 to 24 hrs by LC-MS/MS analysis; type: ADME, organism-based; conditions: in vivo, time 0.083-24 hrs
Homo sapiens [16] = species on record: Homo sapiens; assay: Selectivity index, ratio of IC50 for coagulation factor VIIa (unknown origin) to IC50 for coagulation factor XIa (unknown origin)
Homo sapiens [17] = species on record: Homo sapiens; assay: Selectivity index, ratio of IC50 for plasma kallikrein (unknown origin) to IC50 for coagulation factor XIa (unknown origin)
[18] = Toxicity in C57BL/6J mouse assessed as bleeding risk at 19.5 to 39 mg/kg, iv measured after 15 mins by tail transection assay; type: organism-based; conditions: in vivo, 0.25 h, dose 19.5-39 mg/kg
Coagulation factor XI = Coagulation factor XI (Homo sapiens, UniProt P03951); conditions: dose 50.0 nM, time 1.0 hrs
Sequence of Coagulation factor XI (P03951 19-387 limits assumed): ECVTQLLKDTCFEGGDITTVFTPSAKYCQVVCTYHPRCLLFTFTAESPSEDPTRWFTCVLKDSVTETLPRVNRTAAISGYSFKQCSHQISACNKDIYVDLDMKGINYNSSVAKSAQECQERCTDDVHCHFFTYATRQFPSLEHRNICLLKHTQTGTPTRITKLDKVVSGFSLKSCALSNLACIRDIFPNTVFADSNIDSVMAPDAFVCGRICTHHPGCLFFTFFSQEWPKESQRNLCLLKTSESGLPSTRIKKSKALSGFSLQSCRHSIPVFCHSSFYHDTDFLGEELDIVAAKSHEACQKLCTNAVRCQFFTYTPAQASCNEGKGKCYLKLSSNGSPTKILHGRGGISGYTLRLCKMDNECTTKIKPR
Sequence of Coagulation factor XI (P03951 388-625 limits assumed): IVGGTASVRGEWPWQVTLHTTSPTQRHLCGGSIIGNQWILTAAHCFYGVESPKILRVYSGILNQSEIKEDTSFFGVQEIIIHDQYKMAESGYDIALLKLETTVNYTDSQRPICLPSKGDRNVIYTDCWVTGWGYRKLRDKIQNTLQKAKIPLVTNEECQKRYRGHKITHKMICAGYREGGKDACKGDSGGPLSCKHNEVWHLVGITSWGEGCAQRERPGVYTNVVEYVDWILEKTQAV

Homo sapiens [19] = species on record: Homo sapiens; assay: Selectivity index, ratio of IC50 for thrombin (unknown origin) to IC50 for coagulation factor XIa (unknown origin)
[20] = target: T1, Coagulation factor XII (Homo sapiens) (UniProt P00748); assay: Inhibition of coagulation factor XIIa (unknown origin) assessed as chromogenic substrate using TH5253 as substrate at 1 mM incubated for 1 hr by spectrophotometer based microplate reader method
T1 sequence (whole entry): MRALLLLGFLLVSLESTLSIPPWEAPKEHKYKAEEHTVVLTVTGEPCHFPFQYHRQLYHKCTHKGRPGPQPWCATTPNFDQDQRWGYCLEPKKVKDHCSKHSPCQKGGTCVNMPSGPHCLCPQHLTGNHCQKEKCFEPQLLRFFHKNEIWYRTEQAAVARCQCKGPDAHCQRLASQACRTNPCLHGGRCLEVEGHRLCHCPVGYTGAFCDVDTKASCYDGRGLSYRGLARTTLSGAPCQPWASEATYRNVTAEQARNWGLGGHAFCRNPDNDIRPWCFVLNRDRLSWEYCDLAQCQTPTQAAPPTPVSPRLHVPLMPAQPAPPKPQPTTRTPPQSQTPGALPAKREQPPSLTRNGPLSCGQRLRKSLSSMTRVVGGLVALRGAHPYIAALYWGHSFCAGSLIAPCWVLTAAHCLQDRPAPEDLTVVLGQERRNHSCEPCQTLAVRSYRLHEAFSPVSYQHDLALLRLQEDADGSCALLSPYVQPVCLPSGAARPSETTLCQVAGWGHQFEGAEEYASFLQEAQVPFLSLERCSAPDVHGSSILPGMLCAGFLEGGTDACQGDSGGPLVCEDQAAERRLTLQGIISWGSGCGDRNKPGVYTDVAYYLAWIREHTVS

[21] = AUC(0 to infinity) in Sprague-Dawley rat at 10 mg/kg, iv after 0.083 to 24 hrs by LC-MS/MS analysis; type: ADME, organism-based; parameters: route intravenous, dose 10 mg/kg, time upper 24 hrs, time lower 0.083 hrs; conditions: in vivo
[22] = Toxicity in C57BL/6J mouse assessed as bleeding risk at 35 mg/kg, iv measured after 15 mins by tail transection assay; type: organism-based; conditions: in vivo, 0.25 h
[23] = Acute toxicity in ICR mouse assessed as histological change in kidney at 50 to 100 mg/kg, iv as single dose for 14 days by H and E staining method; type: organism-based; conditions: in vivo, 336 h, dose 50-100 mg/kg, time 14 day
[24] = Acute toxicity in ICR mouse assessed as histological change in spleen at 50 to 100 mg/kg, iv as single dose for 14 days by H and E staining method; type: organism-based; conditions: in vivo, 336 h, dose 50-100 mg/kg, time 14 day
Plasma [25] = assay: Anticoagulant activity in mouse platelet-poor plasma assessed as increase in activated partial thromboplastin time at 22 ug/ml incubated for 3 mins by coagulometer analysis; type: functional, cell-free; conditions: dose 22.0 µg/ml
[26] = Toxicity in C57BL/6J mouse assessed as bleeding risk at 60 to 100 mg/kg, iv measured after 15 mins by tail transection assay; type: organism-based; conditions: in vivo, 0.25 h, dose 60-100 mg/kg
Plasma kallikrein = Plasma kallikrein (Homo sapiens, UniProt P03952); assay: Inhibition of plasma kallikrein (unknown origin) assessed as chromogenic substrate hydrolysis using CS-31(02) as substrate incubated for 1 hr by spectrophotometer based microplate reader method
Sequence of Plasma kallikrein (P03952 20-390 limits assumed): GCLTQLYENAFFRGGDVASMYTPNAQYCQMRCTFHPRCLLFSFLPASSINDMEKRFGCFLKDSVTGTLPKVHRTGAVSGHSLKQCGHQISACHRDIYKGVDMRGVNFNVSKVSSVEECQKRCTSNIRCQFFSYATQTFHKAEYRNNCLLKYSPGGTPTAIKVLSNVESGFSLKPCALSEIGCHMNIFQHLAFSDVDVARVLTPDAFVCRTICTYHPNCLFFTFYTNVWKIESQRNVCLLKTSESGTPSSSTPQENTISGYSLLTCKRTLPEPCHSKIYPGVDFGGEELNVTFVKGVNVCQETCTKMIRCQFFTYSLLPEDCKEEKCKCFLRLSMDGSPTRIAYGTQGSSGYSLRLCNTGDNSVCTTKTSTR
Sequence of Plasma kallikrein (P03952 391-638 limits assumed): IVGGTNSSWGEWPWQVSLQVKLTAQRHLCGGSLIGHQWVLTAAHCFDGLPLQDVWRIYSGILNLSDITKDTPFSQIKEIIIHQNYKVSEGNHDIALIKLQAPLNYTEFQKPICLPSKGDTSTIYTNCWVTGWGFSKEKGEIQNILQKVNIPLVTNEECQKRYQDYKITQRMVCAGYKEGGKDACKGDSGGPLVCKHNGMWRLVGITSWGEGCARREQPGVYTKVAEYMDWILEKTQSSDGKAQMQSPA

For `O=C(/C=C/c1cc(Cl)ccc1-n1cnnn1)N[C@@H](CC(=O)N1CCN(c2ccccc2)CC1)C(=O)Nc1ccc(C(=O)O)cc1`, the Activity [1] was “Non-Toxic”, the inhibition [2] was “inactive” and the Activity [3] was “Non-Toxic”. The Activity (Plasma [4]) was “inactive”, the Activity [5] was “Non-Toxic” and the Ratio IC50 (Homo sapiens [6]) was greater than 5000. It also gave a clearance [7] of 9.22 mL/min/kg, an IC50 (Prothrombin) of 460 µM and a Ratio IC50 (Homo sapiens [8]) greater than 5000. For the same molecule, the AUC(0-t) [9] was 18300 ng·h/mL, the Activity [10] was “Non-Toxic” and the Ratio IC50 (Homo sapiens [11]) was greater than 5000. The Vd [12] was 0.969 L/kg, the Cmax [13] was 57 µg/mL and the Activity (Mus musculus) was “Active”. The Activity [14] was “Non-Toxic”, the MRT last [15] was 19.2 min and the Ratio IC50 (Homo sapiens [16]) was greater than 5000. The Ratio IC50 (Homo sapiens [17]) was 1960, the Activity [18] was “Non-Toxic” and the inhibition (Coagulation factor XI) was 59.4%. The Ratio IC50 (Homo sapiens [19]) was greater than 5000, the inhibition [20] was “inactive” and the AUC(0-inf) [21] was 18400 ng·h/mL. The Activity [22] was “Non-Toxic”, the Activity [23] was “Non-Toxic” and the Activity [24] was “Non-Toxic”. The Activity (Plasma [25]) was “Active”, the Activity [26] was “Non-Toxic” and the IC50 (Plasma kallikrein) was 27.9 µM.
